# In patent US8324282B2, “Alkylating agent combinations in the treatment of cancer” (Case Western Reserve University, priority 1999, dated 2012):
# What was measured:
# [1] = test system: AP sites in calf thymus DNA; assay: Competitive AP site binding assayed by Aldehyde Reactive Probe (ARP)
# Description: 1. Analysis of chemical—modified AP Sites assayed by Aldehyde Reactive Probe (ARP). This is a competitive assay to measure the reactivity with AP site between ARP reagent (Dojindo Molecular Technologies Inc., Gaithersburg, Md.) and the screening compounds. ARP and MX have a similar reactivity with AP sites. They react specifically with an aldehyde group that is open ring form of the AP sites. Thus this assay will allow identification of compounds with potential to block AP site repair based on the binding affinity and efficiency to AP sites of screening compounds compared to ARP and MX.
# a. AP site standard preparation: AP sites were produced in a calf thymus DNA by heat/acid-buffer solution. Intact calf thymus DNA was added to sodium citrate buffer (10 mM sodium citrate containing 10 mM NaH2PO4 and 10 mM NaCl, pH 5.0) and held at 70° C. for 30 min. The reaction was stopped by chilling rapidly on ice, and the DNA was then precipitated with cold ethanol, washed with 70% ethanol, dried, and resuspended in sterilized distilled water.
# b. […] After NC membrane was rinsed with washing buffer containing NaCl (0.26 M), EDTA (1 mM), Tris-HCI (20 mM), and Tween 20 (1%), ARP-AP sites are visualized with ECL reagents (Amersham Corp.) (FIG. 22A) and quantitated by scanning densitometer (FIG. 22B).
# [2] = test system: DLD1 cells and HCT116 cells; assay: Potentiation of TMZ cytotoxicity by compound A in tumor cells; format: cell-based
# Procedure: (§1) On the basis of a similar molecular reaction to MX, (e.g., a primary amine with the carbonyl group of the abasic site), we tested whether a compound (Compound A) would have the ability to bind to AP site generated by TMZ and enhance the killing effect of TMZ. A has a MX-like structure to bind to AP site and also has fluorescence molecules to provide a signal for direct detection of modified AP sites using cellular image. […] In in vitro study, we observed A at non-toxic concentrations (1 mM) sensitized cells to TMZ-cytotoxicity 2-3-fold. In a xenograft model, A (2 mg/kg) combined with TMZ (80 mg/kg) enhanced anti-tumor effect in HCT116 and DLD1, two xenograft tumors with very high resistance to TMZ. Tumor growth delays were 13 days in HCT116 and 12 days in DLD1 treated with the combination of A and TMZ over TMZ alone. Thus, A has a similar effect to MX on interruption of BER and can potentiate chemotherapeutic agents such as alkylating agents. Results are depicted in FIGS. 14-16.
# AP sites in DNA = assay: Cellular image of fluorescent A-modified AP sites; format: cell-based; details: A alone
# Procedure: as §1
# AP-endonuclease (APE) = assay: AP site cleavage by AP-endonuclease (APE); format: biochemical
# Procedure: 2. AP sites cleavaged by AP-endonuclease (APE). […] The assay may be performed as follows (see also FIGS. 23A and B):
# a. AP site is prepared by replacing single nucleoside with deoxyuridine in duplex oligonucleotides (40 mer).
# b. Regular AP site is produced in the duplex oligonucleotides by human uracil DNA glycosylase (LIDGase, Trevigen, Gaithersburg, Md.) to remove the uracil residue.
# c. To generate MX-adducted AP site substrates: the UDG-treated duplex oligonucleotides are mixed with 10 mM MX in buffer containing 10 mM KPO4, pH 7.1 and incubated at 37° C. After 30 min, the substrates are recovered by ethanol precipitation, lyophilized, resuspended in water, and stored at −20° C.
# d. APE-cleavage reaction: DNA substrates containing either regular AP-sites or chemicalmodified AP sites are incubated with APE (Trevigen, Gaithersburg, Md.) for 30 min and reactants are precipitated with 100% cold ethanol, washed with 70% ethanol and resuspended in TE buffer. The reactants are resolved by denaturing 20% polyacrylamide gel electrophoresis and visualized by silver staining (Silver Staining Kit, Pharmacia Biotech).
smiles,measurement,setting,value
NNC(=S)Nc1ccc(-c2c3ccc(=O)cc-3oc3cc(O)ccc23)c(C(=O)O)c1 [Compound A],binding to AP sites assayed with ARP,[1],able to bind to AP sites
same,cytotoxicity of A alone,[2]; 1 mM,non-toxic
same,sensitization to TMZ-cytotoxicity,[2]; A at 1 mM,2-3 fold
same,fluorescence signal,AP sites in DNA,no visualized fluorescence signal
same,cleavage of modified AP sites by APE,AP-endonuclease (APE),refractory to cleavage
